Laboratory results reported in paper PMC6337497 (International Journal of Molecular Sciences, 2018).
pIC50: −log10 of the molar value.

Key:
[1] = pH-metric titration, acid-base behavior (UV-vis, HypSpec); type: physicochemical; details: pH 7
Protocol: pH-metric titrations were performed in order to assess K3F acidity and predict the most abundant species in physiological condition. […] Overall protonation constants (βHL) were calculated from spectrophotometric data and optimized by means of HypSpec software (Supplementary Table S1). K3F23, K3F24 and K3F33 behaved as weak monoprotic acids, with a pKa value close to 8–8.50 associated to the keto-enol moiety. As for the other two ligands, namely K3F21 and K3F31, the acid-base equilibria were more complex in view of the polyprotic nature of the compounds, and three logβLH values were calculated. Species distribution curves (Supplementary Figure S2) provided reliable prediction of neutral and charged forms as function of pH, and consequently helped to envisage cell penetration and distribution in physiological conditions. […] As for K3F21 and K3F31, they behaved as less weak acids, in fact at pH 7 58% of K3F21 and 65% of K3F31 were found in the mono-dissociated negatively charged form (H2L^−), these percentages increased up to 74% and 86% respectively at pH 7.4. […] This outcome could be attributed to the stabilizing effect of the intramolecular hydrogen bond between the methoxyl and hydroxyl groups on the aromatic ring in the indissociated form of K3F21, which shifts the equilibrium in favor of the neutral species (H3L).
UV-vis spectrophotometric measurements were performed using Jasco V-570 spectrophotometer at 25.0 ± 0.1 °C in the 200–600 nm spectral range employing 1 cm quartz cells. Owing to the poor water solubility of the compounds, a methanol mother solution (5 × 10^−3 M) was diluted in water in order to give 50 µM solutions used for pH-metric titrations. The pH value was varied by adding small amounts of concentrated NaOH or HCl, 25 points in the pH range 3–10. A constant ionic strength of 0.1 M (NaNO3) was maintained in all the experiments. Each titration was performed at least three times. The overall protonation constants (logβLH) were evaluated from spectrophotometric data using the software HypSpec.

[2] = test system: PC3 cells; assay: Cell migration (wound) assay, PC3; type: cell-based, Human; details: PC3, GI50 dose, 40 h
Protocol: (§1) 4 × 10^5 prostate cancer cells were plated in a 12-well plate. Approximately 24 h later, when the cells were 100% confluent, the monolayer was scratched using a 200 µL pipette tip. […] Three biological replicates were performed. Three random pictures were taken for each treated well per experiment and the areas of the wounds measured using ImageJ software. The percentage of wound recovery was then calculated using the formula: (final area-initial area)/initial area × 100%.

[3] = test system: DU145 cells; assay: RT-qPCR gene transcription, DU145; type: cell-based, Human; details: DU145, 48 h at GI50 dose
Protocol: Data are presented as relative transcript levels, normalized with RPL21 housekeeping gene, with DMSO levels arbitrarily set at 1.
RNA was extracted from cells using RNeasy kit (Qiagen, Venlo, The Netherlands) and reversed transcribed with a Moloney murine leukemia virus reverse transcriptase (Promega, Madison, WI, USA). Quantitative real-time PCRs were performed using SsoAdvanced Universal SYBR Green Supermix (Bio-Rad, Hercules, CA, USA) on a Bio-Rad CFX Connect™ real-time PCR detection system. Primer sequences are available upon request. The housekeeping gene Rpl21 was used as a loading control. The relative fold change enrichments of real-time PCR samples were calculated with the formula 2^−(ΔΔCt), where −(ΔΔCt) = −[(Ct target − Ct Rpl21)treated − (Ct target − Ct Rpl21)DMSO].

[4] = Antioxidant activity (DPPH assay); details: [DPPH] = 60 µM, methanol, 120 min; read-out: IC50, DPPH radical scavenging
Protocol: The antioxidant activity of the compounds was evaluated in terms of hydrogen donating or radical scavenging ability, using the stable DPPH radical (1,1-diphenyl-2-picrylhydrazyl radical). A variable amount (15, 30, 45, 75, 105, and 150 µL) of a methanol solution (1.2 mM) of each compound was placed in a cuvette, and 3 mL of a 60 µM methanol solution of DPPH was added. Absorbance measurements were initiated immediately. The decrease in absorbance at 517 nm was monitored every minute up to 5′, then every 5′ up to 30′ and every 30′ until reaction reaches completion and absorbance stabilizes attaining a plateau after 120′. Methanol was used to zero the spectrophotometer. The absorbance of the DPPH radical without K3F compound, i.e., the control, was measured daily, and concentration was calculated applying Equation (2) (2) [DPPH^·]=A−1.006/10970
The percentage of inhibition (%In) of the DPPH radical by each sample was calculated according to the formula (3) %In=A0−At/A0×100 where A0 represents the absorbance of the control (DPPH radical) at time 0, while At refers to the absorbance of the mixture DPPH/antioxidant at time t (120 min). Values of absorbance were corrected taking into account volume dilution and all determinations were performed in triplicate.

[5] = test system: DU145 cells; assay: Cell migration (wound) assay, DU145; type: cell-based, Human; details: DU145, GI50 dose, 16 h
Protocol: as §1

[6] = test system: HCT116 cells; assay: MTT cell viability assay, HCT116; type: cell-based, Human; details: HCT116, 48 h
Protocol: Human prostate cancer PC3 cells (CRL 1435, ATCC, Manassas, VA, USA) were grown in Ham’s F12 nutrient medium, human prostate cancer DU145 cells (HTB-81, ATCC, Manassas, VA, USA) in RPMI 1640 medium and human colorectal carcinoma HCT116 cells (CCL-247, ATCC, Manassas, VA, USA) in IMDM medium. All media (Biowest, Nuaillé, France) were supplemented with 10% Foetal Bovine Serum (Gibco-Thermo Fisher Scientific, Waltham, MA, USA), L-glutamine, penicillin, and streptomycin (Euroclone, Milan, Italy), and grown at 37 °C in a humidified 5% CO2 atmosphere. The inhibition of cell proliferation was measured by colorimetric MTT assay [51] and the concentration at which cellular growth is inhibited by 50% (GI50) was determined. Briefly, cells were seeded into 96-well plates at a density of 2000 cells/well. The following day, cells were treated with the indicated compounds and analyzed for cell viability after 48 h. 5 mg/mL thiazolyl blue tetrazolium bromide (Sigma-Aldrich, St. Louis, MO, USA) was added to each well at a final concentration of 0.5 mg/mL and the plates were incubated at 37 °C for 2 h. Medium containing unconverted MTT was removed and 100 µL MTT solvent (4 mM HCl, 0.1% NP-40 in isopropyl alcohol) was added to each well. The plate was gently rotated on an orbital shaker in the dark for 15 min, before the measurements of absorbance at 570 nm. […]

COc1cc(/C=C/C(=O)C(CCCN2C(=O)c3ccccc3C2=O)C(=O)/C=C/c2ccc(O)c(OC)c2)ccc1O [K3F21]
mono-dissociated negatively charged form (H2L−) [1]: 58% | cell migration (wound recovery) [2]: exerted inhibitory effects on the migratory capacity | EGFR expression [3]: reduced | Noxa transcription [3]: induced | Puma transcription [3]: increased exclusively following K3F21 administration | transcription of CDK inhibitors p21 and p27 [3]: raised only after K3F21 treatment | transcription of Cdc2, CyclinB1, CyclinB2, and CyclinD1 cell cycle genes ([3]; compared to curcumin and control cells): general decrease, though not always significant | pIC50 [4]: 4.62 | cell migration (wound recovery) [5]: exerted inhibitory effects on the migratory capacity | anti-proliferative activity compared to the other derivatives [6]: most active molecule
